Results reported in patent US20220315888A1, “CULTURE METHOD FOR RETINAL ORGANOIDS” (University of Newcastle Upon Tyne, priority 2019, published 2022).
Entries after “also recorded” stand apart in the source; their conditions may differ.

How the values were obtained:
Assay type in all cases: cell-based, human
[1] = tested on: Rhodopsin expression in retinal organoids derived from hESCs; assay: Immunohistochemistry quantification of Rhodopsin+ cells (rods) at day 150; conditions: addition day 90-120, organoids at day 150, compared to vehicle control
Method: Human Pluripotent Stem Cells differentiation to retinal organoids Retinal organoids were differentiated from the CRX-GFP H9 human ESC cell line using a feeder-free system. ESCs were expanded in […] Technologies, 05850) at 37° C. and 5% CO2 on 6 well plates pre-coated with Low Growth Factor Matrigel (Corning, 354230). The retinal organoids were generated following a protocol described in Collin et al., 2019 [25] with addition of various supplements, which are shown in FIG. 1. […] DAPT was only added from day 30-42 (for day 30-60 combined addition with RA from day 30-60), day 60-72 (for the combined addition with RA from day 60-90), day 90-102 (for the combined addition with RA from day 90-120) and day 30-42 (for the combined addition with RA from day 30-120). Retinal organoids were collected on day 150 and fixed in 2% PFA for 30 minutes, followed by three washes in Phosphate-buffered saline (PBS), incubated overnight in 30% sucrose in PBS, embedded in Optical Cutting medium (OCT) ([…], UK) and frozen at -20° C. Ten-micrometre cryostat sections were collected using a Leica Cm1860 cryostat (Leica, Germany) onto Superfrost Plus slides and stored at -20° C. in slide boxes prior to immunostaining. Cryosections were air-dried, washed several times in PBS and incubated in blocking solution (10% normal goat serum, 0.3% Triton-X-100 in PBS) for one hour at room temperature. Slides were incubated with the appropriate primary antibody overnight at 4° C. (Table 2). After rinsing with PBS, sections were incubated with the secondary antibody for 2 hours at room temperature. Alexa Fluor 647 and 546 secondary antibodies (InvitrogenMolecular Probes) were used at a 1:1000 dilution. Negative controls were carried out by omitting the primary antibody. Afterwards, sections were washed three times in PBS and mounted with Vectashield (Vector Laboratories, Burlingame, Calif.) containing Hoechst (LifeTechnologies, UK). Images were captured using an Axio Imager upright microscope with Apotome (Zeiss, Germany) structured illumination fluorescence using 20× objective and 63× oil objective operated with AxioVision software. Final images are presented as a maximum projection and adjusted for brightness and contrast in Adobe Photoshop (Adobe Systems). Cell image quantitation was performed using the MATLAB software (Mathworks, MA) following the protocol described in Dorgau et al., 2019 [26]. A minimum of eight individual retinal organoids were analysed for each condition. All results were further analysed using Microsoft Excel and Prism (GraphPad, USA).

retinal organoids = assay: Retinal organoid lamination and tissue architecture at day 150; conditions: day 150 of differentiation
Method: Human Pluripotent Stem Cells differentiation to retinal organoids Retinal organoids were differentiated from the CRX-GFP H9 human ESC cell line using a feeder-free system. ESCs were expanded in mTeSR™1 (StemCell Technologies, 05850) at 37° C. and 5% CO2 on 6 well plates pre-coated with Low Growth Factor Matrigel (Corning, 354230). The retinal organoids were generated following a protocol described in Collin et al., 2019 [25] with addition of various supplements, which are shown in FIG. 1.
The tested supplements include Retinoic Acid (RA) (0.5 μM or 1 μM Sigma-Aldrich UK), 9-cis-retinal (0.5 μM, Sigma-Aldrich UK), 11-cis-retinal (0.5 μM, BOC Sciences), Levodopa (0.5 μM, Sigma-Aldrich UK), Triiodothyronine (T3) (20 ng/ml or 40 ng/ml, Sigma-Aldrich) and DAPT (10 μM Sigma-Aldrich UK) singly or in combination with each other from day 18 of differentiation for specific durations (day 18 onwards, day 30-60, day 60-90, day 90-120 and day 30-120), except for DAPT (FIG. 1). […]
(§1) Images were captured using an Axio Imager upright microscope with Apotome (Zeiss, Germany) structured illumination fluorescence using 20× objective and 63× oil objective operated with AxioVision software. […]

[2] = tested on: OPN1MW/LW (L/M cones) expression in retinal organoids derived from hESCs; assay: Immunohistochemistry quantification of OPN1MW/LW+ cells (L/M cones) at day 150; conditions: addition day 30-120; organoids at day 150; compared to vehicle control
Method: Human Pluripotent Stem Cells differentiation to retinal organoids Retinal organoids were differentiated from the CRX-GFP H9 human ESC cell line using a feeder-free system. ESCs were expanded in mTeSR™1 (StemCell Technologies, 05850) at 37° C. and 5% CO2 on 6 well plates pre-coated with Low Growth Factor Matrigel (Corning, 354230). The retinal organoids were generated following a protocol described in Collin et al., 2019 [25] with addition of various supplements, which are shown in FIG. 1. […]
as §1
Cell image quantitation was performed using the MATLAB software (Mathworks, MA) following the protocol described in Dorgau et al., 2019 [26]. A minimum of eight individual retinal organoids were analysed for each condition. All results were further analysed using Microsoft Excel and Prism (GraphPad, USA).

SMILES	Rhodopsin+ cells (rods), immunohistochemistry quantification [1]	Effect on tissue architecture and lamination of the retinal organoids (retinal organoids)	OPN1MW/LW+ cells (L/M cones), IHC quantification [2]	Rhodopsin+ cells (rods), immunohistochemistry quantification ([1]; listed as RA alone)
CC1=C(/C=C/C(C)=C\C=C\C(C)=C\C=O)C(C)(C)CCC1 [9-cis-retinal]	lower			
CC1=C(/C=C/C(C)=C/C=C/C(C)=C/C=O)C(C)(C)CCC1 [11-cis-retinal]	lower; also recorded: reduction			
C[C@H](NC(=O)Cc1cc(F)cc(F)c1)C(=O)N[C@H](C(=O)OC(C)(C)C)c1ccccc1 [DAPT]		did not interfere		
CC1=C(/C=C/C(C)=C/C=C/C(C)=C/C(=O)O)C(C)(C)CCC1 [RA, all-trans-retinoic acid]	reduction		significantly enhanced	lower
